Measured values taken from patent US20240310361A1, “METHOD OF […] RESPONSE OF CELL GROUP TO TEST SUBSTANCE” (CANON KABUSHIKI KAISHA, priority 2023, published 2024).

Tested on: PBMCs
Assay: Calcium-derived fluorescence check of immobilized Fluo-4-stained PBMCs with a calcium ionophore
Format: cell-based
Conditions: final concentration 1 μg/mL; PBMCs immobilized on BAM-modified glass bottom dish; FIG. 8/9
Experimental: It is found from FIG. 7 that the PBMCs can be immobilized under a dense state at positions subjected to the BAM modification. […] It was able to be recognized that the cells were immobilized so as to satisfy the condition. In addition, to recognize whether or not fluorescence derived from calcium was able to be observed with the immobilized cells, a calcium ionophore (A23187) was added at a final concentration of 1 μg/mL. […] FIG. 8 is a fluorescence image before the addition of the calcium ionophore, and FIG. 9 is a fluorescence image after the addition.
In this Example, the fluorescence images were acquired with an inverted microscope (TE200-U, manufactured by Nikon Corporation), a CCD camera (EM-CCD DIGITAL CAMERA/C9100-13, manufactured by Hamamatsu Photonics K.K.), and a filter set (excitation: from 450 nm to 490 nm, DM: 505 nm, fluorescence: 520 nm).
Floating PBMCs were recovered from the PBMCs cultured overnight, and 7 mL of PBS was added thereto, followed by centrifugation at 300 G for 8 minutes. The supernatant was removed, and the residue was suspended in 10 mL of PBS, followed by the counting of a cell number. […]

Compound: CNc1ccc2oc(C[C@H]3O[C@@]4(CC[C@H]3C)O[C@H]([C@H](C)C(=O)c3ccc[nH]3)[C@H](C)C[C@H]4C)nc2c1C(=O)O [A23187]
- fluorescence derived from calcium in immobilized cells: fluorescence was able to be observed in each of substantially all the immobilized PBMCs
